Measurements from patent US7345070B2, “Peroxisome proliferator activated receptor agonists” (Eli Lilly and Company, priority 2000, dated 2008).

What was measured:
[1] = tested on: db/db mice; assay: Evaluation of glucose levels in db/db mice; assay type: in vivo; conditions: Mus musculus, 168 h, 30 mg/kg oral gavage daily for 7 days, 100% = glucose not different from lean values, read-out: Glucose Normalisation
Protocol: Five week old male diabetic (db/db) mice [C57BlKs/j-m+/+ Lepr(db), Jackson Laboratory, Bar Harbor, Me.] or lean littermates (db+) were housed 6 per cage (10″×20″×8″ with aspen chip bedding) with food (Purina 5015) and water available at all times. After an acclimation period of 2 weeks, animals were individually identified by ear notches, weighed, and bled via the tail vein for determination of initial glucose levels. Blood was collected (100 μl) from unfasted animals by wrapping each mouse in a towel, cutting the tip of the tail with a scalpel, and milking blood from the tail into a heparinized capillary tube (Fisher) balanced on the edge of the bench. Sample was discharged into a heparinized microtainer with gel separator (VWR) and retained on ice. Plasma was obtained after centrifugation at 4° C. and glucose measured immediately. Remaining plasma was frozen until the completion of the experiment, when glucose and triglycerides were assayed in all samples. Animals were grouped based on initial glucose levels and body weights. Beginning the following morning, mice were dosed daily by oral gavage for 7 days using a 20 gauge, 1½″ curved disposable feeding needle. Treatments were test compounds (30 mg/kg), a positive control agent (30 mg/kg) or vehicle [1% carboxymethylcellulose (w/v)/0.25% Tween80 (w/v); 0.3 ml/mouse]. On day 7, mice were weighed and bled (tail vein) 3 hours after dosing. Twenty-four hours after the 7th dose (i.e., day 8), animals were bled again (tail vein). Samples obtained from conscious animals on days 0, 7 and 8 were assayed for glucose. After the 24 hour bleed, animals were weighed and dosed for the final time. Three hours after dosing on day 8, animals were anesthetized by inhalation of isoflurane and blood obtained via cardiac puncture (0.5-0.7 ml). Whole blood was transferred to serum separator tubes, chilled on ice and permitted to clot. Serum was obtained after centrifugation at 4° C. and frozen until analysis for compound levels. After sacrifice by cervical dislocation, the liver, heart and epididymal fat pads were excised and weighed.
The animals dosed with vehicle had average triglycerides values of 170-230 mg/dl, which were reduced by the positive PPARγ control (70-120 mg/dl with a mean reduction of 50%). Male db/db mice were hyperglycemic (average glucose of 680-730 mg/dl on the 7th day of treatment), while lean animals had average glucose levels between 190-230 mg/dl.
Glucose was measured […] using commercially purchased reagents (Sigma #315-500). According to the manufacturers, the procedures were modified from published work (McGowan, M. W., Artiss, J. D., Strandbergh, D. R. & Zak, B. Clin Chem, 20:470-5 (1974) and Keston, A. Specific colorimetric enzymatic analytical reagents for glucose. Abstract of papers 129th Meeting ACS, 31C (1956).); and depend on the release of a mole of hydrogen peroxide for each mole of analyte, coupled with a color reaction first described by Trinder (Trinder, P. Determination of glucose in blood using glucose oxidase with an alternative oxygen acceptor. Ann Clin Biochem, 6:24 (1969)). The absorbance of the dye produced is linearly related to the analyte in the sample. The assays were further modified in our laboratory for use in a 96 well format. Standards (Sigma #339-11, Sigma #16-11, and Sigma #CC0534 for glucose, triglycerides and total cholesterol, respectively), quality control plasma (Sigma # A2034), and samples (2 or 5 μl/well) were measured in duplicate using 200 μl of reagent. An additional aliquot of sample, pipetted to a third well and diluted in 200 μl water, provided a blank for each specimen. Plates were incubated at room temperature (18, 15, and 10 minutes for glucose, triglycerides and total cholesterol, respectively) on a plate shaker (DPC Micormix 5) and absorbance read at 500 nm (glucose and total cholesterol) or 540 nm (triglycerides) on a plate reader (Wallac Victor 1420). […]

[2] = tested on: HuapoAI transgenic mice; assay: Evaluation of triglyceride and cholesterol level in HuapoAI transgenic mice; assay type: in vivo; conditions: human apoAI transgenic mice; for change in vivo at 30 mg/kg / inhibition in vivo at 30 mg/kg: Mus musculus, 168 h, 30 mg/kg oral gavage daily for 7 days; for change in vivo at 30 mg/kg: FPLC area under the curve, over mice receiving vehicle, read-out: % HDLc Increase; for inhibition in vivo at 30 mg/kg: serum 3 h after dosing, read-out: Reduction in Triglyceride Serum Level
Protocol: After an acclimation period of 2 weeks, animals were individually identified by ear notches, weighed, and assigned to groups based on body weight. Beginning the following morning, mice were dosed daily by oral gavage for 7 days using a 20 gauge, 1½″ curved disposable feeding needle (Popper & Sons). […] Prior to termination on day 7, mice were weighed and dosed. Three hours after dosing, animals were anesthetized by inhalation of isoflurane (2-4%; Abbott Laboratories, Chicago, Ill.) and blood obtained via cardiac puncture (0.7-1.0 ml). Whole blood was transferred to serum separator tubes (Vacutainer SST), chilled on ice, and permitted to clot. Serum was obtained after centrifugation at 4° C. and frozen until analysis for triglycerides, total cholesterol, compound levels, and serum lipoprotein profile by fast protein liquid chromatography (FPLC) coupled to an inline detection system. After sacrifice by cervical dislocation, the liver, heart and epididymal fat pads were excised and weighed.
The absorbance of the dye produced is linearly related to the analyte in the sample. The assays were further modified in our laboratory for use in a 96 well format. […] An additional aliquot of sample, pipetted to a third well and diluted in 200 μl water, provided a blank for each specimen. […] Sample absorbances were compared to a standard curve (100-800, 10-500, and 100-400 mg/dl for glucose, triglycerides and total cholesterol, respectively). […] All samples from an experiment were assayed at the same time to minimize inter-assay variability.
Serum lipoproteins were separated and cholesterol quantitated with an in-line detection system. Sample was applied to a Superose® 6 HR 10/30 size exclusion column (Amersham Pharmacia Biotech) and eluted with phosphate buffered saline-EDTA at 0.5 ml/min. […] The change in voltage corresponding to change in cholesterol concentration was plotted vs time and the area under the curve corresponding to the elution of VLDL, LDL and HDL was calculated using Perkin Elmer Turbochrome software.

[3] = tested on: huPPARα; assay: Cotransfection assay in CV-1 cells, huPPARα; assay type: cell-based, human; conditions: GAL4 chimeric system, relative to PPARα agonist reference molecule
Protocol: DNA-dependent binding (ABCD binding) was carried out using SPA technology with PPAR receptors. Tritium-labeled PPARα and PPARγ agonists were used as radioligands for generating displacement curves and IC50 values with compounds of the invention. Cotransfection assays were carried out in CV-1 cells. The reporter plasmid contained an acylCoA oxidase (AOX) PPRE and TK promoter upstream of the luciferase reporter cDNA. Appropriate PPARs and RXRα were constitutively expressed using plasmids containing the CMV promoter. […] In order to eliminate such interference, a GAL4 chimeric system was used in which the DNA binding domain of the transfected PPAR was replaced by that of GAL4, and the GAL4 response element was utilized in place of the AOX PPRE. Cotransfection efficacy was determined relative to PPARα agonist and PPARγ agonist reference molecules. Efficacies were determined by computer fit to a concentration-response curve, or in some cases at a single high concentration of agonist (10 μM). For binding or cotransfection studies with receptors other than PPARs, similar assays were carried out using appropriate ligands, receptors, reporter constructs, etc., for that particular receptor.
These studies were carried out to evaluate the ability of compounds of the invention to bind to and/or activate various nuclear transcription factors, particularly huPPARα (“hu” indicates “human”) and huPPARγ. These studies provide in vitro data concerning efficacy and selectivity of compounds of the invention. Furthermore, binding and cotransfection data for compounds of the invention were compared with corresponding data for marketed compounds that act on either huPPARα or huPPARγ.

[4] = 100 mg/kg oral daily 7 days, vs vehicle

Cc1oc(-c2ccccc2)nc1CCOc1ccc(CC(C)(Oc2ccccc2)C(=O)O)cc1 (racemic) [Example 1, rac-3-{4-[2-(2-Phenyl-5-methyl-oxazol-4-yl)-ethoxy]-phenyl}-2-methyl-2-phenoxy-propionic acid]
inhibition in vivo at 30 mg/kg [1]: 95% | change in vivo at 30 mg/kg [2]: 83% | inhibition in vivo at 30 mg/kg [2]: 41.3%

Cc1oc(-c2cccs2)nc1CCOc1ccc(CC(C)(Oc2ccccc2)C(=O)O)cc1 (racemic) [Example 4, rac-2-Methyl-3-{4-[2-(5-methyl-2-thiophen-2-yl-oxazol-4-yl)-ethoxy]-phenyl}-2-phenoxypropionic acid]
inhibition in vivo at 30 mg/kg [1]: 74% | change in vivo at 30 mg/kg [2]: 24% | inhibition in vivo at 30 mg/kg [2]: 58.3%

Cc1oc(-c2ccccc2)nc1CCOc1ccc(C[C@@](C)(Oc2ccccc2)C(=O)O)cc1 [Example 2, (R)-3-{4-[2-(2-Phenyl-5-methyl-oxazol-4-yl)-ethoxy]-phenyl}-2-methyl-2-phenoxy-propionic acid]
inhibition in vivo at 30 mg/kg [1]: 9% | change in vivo at 30 mg/kg [2]: 25% | inhibition in vivo at 30 mg/kg [2]: -12.9%

Cc1oc(-c2ccccc2)nc1CCOc1ccc(C[C@](C)(Oc2ccccc2)C(=O)O)cc1 [Example 3, (S)-3-{4-[2-(2-Phenyl-5-methyl-oxazol-4-yl)-ethoxy]-phenyl}-2-methyl-2-phenoxy-propionic acid]
inhibition in vivo at 30 mg/kg [1]: 85% | change in vivo at 30 mg/kg [2]: 67%

Cc1oc(-c2cccs2)nc1CCOc1ccc(C[C@@](C)(Oc2ccccc2)C(=O)O)cc1 [Example 5, (R)-2-Methyl-3-{4-[2-(5-methyl-2-thiophen-2-yl-oxazol-4-yl)-ethoxy]-phenyl}-2-phenoxypropionic acid]
inhibition in vivo at 30 mg/kg [1]: 80% | change in vivo at 30 mg/kg [2]: 30% | inhibition in vivo at 30 mg/kg [2]: 19.7%

Cc1oc(-c2cccs2)nc1CCOc1ccc(C[C@](C)(Oc2ccccc2)C(=O)O)cc1 [Example 6, (S)-2-Methyl-3-{4-[2-(5-methyl-2-thiophen-2-yl-oxazol-4-yl)-ethoxy]-phenyl}-2-phenoxypropionic acid]
inhibition in vivo at 30 mg/kg [1]: 86% | change in vivo at 30 mg/kg [2]: 85% | inhibition in vivo at 30 mg/kg [2]: 38.5%

Cc1oc(C2CCCCC2)nc1CCOc1ccc(CC(C)(Oc2ccccc2)C(=O)O)cc1 (stereo not drawn) [Example 7, 2-Methyl-3-(4-{2-[5-methyl-2-cyclohexyl-oxazol-4-yl]-ethoxy}-phenyl)-2-phenoxypropionic acid]
inhibition in vivo at 30 mg/kg [1]: 86% | change in vivo at 30 mg/kg [2]: 39% | inhibition in vivo at 30 mg/kg [2]: 42.1%

Cc1c(C)c2c(c(C)c1O)CCC(C)(COc1ccc(CC3SC(=O)NC3=O)cc1)O2 (stereo not drawn) [Troglitazone, reference compound]
huPPARα CTF Efficacy [3]: 0%

CC(C)OC(=O)C(C)(C)Oc1ccc(C(=O)c2ccc(Cl)cc2)cc1 [fenofibrate, reference compound]
HDLc peak area ([2]; 100 mg/kg oral daily 7 days, FPLC of pooled sera, vehicle 47-62 v-sec): 68-96 v-sec | mean percent increase of HDLc ([2]; 100 mg/kg oral daily 7 days, FPLC, vs vehicle): 48% | mean elevation of total serum cholesterol [2, 4]: 41% | mean reduction of triglycerides [2, 4]: 37% | average triglycerides values ([2]; 100 mg/kg oral daily 7 days, vehicle 60-80 mg/dl): 33 to 58 mg/dL | average total serum cholesterol values ([2]; 100 mg/kg oral daily 7 days, vehicle 140-180 mg/dl): 190 to 280 mg/dL
